Measured values from PubChem BioAssay (NCI).
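A five-concentration, 48-hour dose response in 96-well plates underlies each endpoint, interpolated linearly between surrounding concentrations. TGI: total growth inhibition.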

Experiments:
Test in all cases: growth of human tumour cells (NCI), 48 h
NCI-H460 lung = system: NCI-H460 lung
MDA-MB-435 = system: MDA-MB-435
IGROV1 ovarian = system: IGROV1 ovarian
SK-MEL-2 melanoma = system: SK-MEL-2 melanoma
NCI-H226 lung = system: NCI-H226 lung
NCI/ADR-RES ovarian = system: NCI/ADR-RES ovarian
HCC-2998 colon = system: HCC-2998 colon
MALME-3M melanoma = system: MALME-3M melanoma
HL-60(TB) leukemia = system: HL-60(TB) leukemia
CCRF-CEM leukemia = system: CCRF-CEM leukemia

SMILES	TGI (NCI-H460 lung)	TGI (MDA-MB-435)	TGI (IGROV1 ovarian)	TGI (SK-MEL-2 melanoma)	TGI (NCI-H226 lung)	TGI (NCI/ADR-RES ovarian)	TGI (HCC-2998 colon)	TGI (MALME-3M melanoma)	TGI (HL-60(TB) leukemia)	TGI (CCRF-CEM leukemia)
CCOC(=O)N1CCC2(CC1)C[C@](C)(C(C)=O)C(C)O2 (some centres undefined)	> 100 µM	> 100 µM	> 100 µM	> 100 µM	> 100 µM	> 100 µM	> 100 µM	> 100 µM	17.8 µM	
CC(C)c1ccc(/C=C2/C=C(c3ccc4ccccc4c3)OC2=O)cc1	> 100 µM	> 100 µM	> 100 µM	39.6 µM	> 100 µM	> 100 µM	> 100 µM	33.4 µM	39.8 µM	20 µM
COc1ccc(CNc2nc(NCc3ccc(OC)c(OC)c3)nc(NC3CCCCC3)n2)cc1	> 100 µM	> 100 µM	> 100 µM	> 100 µM	> 100 µM	17.5 µM		> 100 µM	> 100 µM	> 100 µM
N#CC1=C(N)N(c2ccccc2)C(c2ccco2)C1(C#N)C#N (centres undefined)		71.8 µM	47.9 µM	59.4 µM	42 µM	56.2 µM	31.3 µM	52.8 µM	53.4 µM	43.9 µM
N=c1n(C(=O)N2CCCC2)c2cc(Cl)ccc2n1C1=NCCN1	> 100 µM	> 100 µM	> 100 µM	> 100 µM	> 100 µM	> 100 µM	> 100 µM	> 100 µM	> 100 µM	> 100 µM
CC1(C)N=C(/C(Cl)=[N+](/[O-])C(=O)c2ccc(F)cc2)C(C)(C)N1O	> 100 µM	49.3 µM	37 µM	40.3 µM	42.2 µM	> 100 µM	35.4 µM	30.8 µM	27.3 µM	12.8 µM
Cc1cc(N(CCC#N)CCC#N)ccc1/C(N=Nc1ccc(Cl)cc1)=N\NC(=O)c1ccccc1	> 100 µM	76.8 µM	> 100 µM	> 100 µM	> 100 µM	> 100 µM	> 100 µM	> 100 µM	> 100 µM	> 100 µM
CCOC(=O)c1c2ccccc2n2c(N)c(C(N)=O)nnc12	> 100 µM	> 100 µM	42.6 µM	> 100 µM		> 100 µM	> 100 µM	> 100 µM	> 100 µM	> 100 µM
C=C1c2nc3ccccc3n2C=C(c2ccccc2)N1c1ccc([N+](=O)[O-])cc1	6.6 µM	32.6 µM	27 µM	56.3 µM	27.6 µM	44.5 µM	> 23.2 µM	25.9 µM	> 88.1 µM	> 81.3 µM
CC(=O)O[C@H]1C(=O)[C@]2(C)[C@@H](OC(=O)OCCC(O)CO)C[C@H]3OC[C@@]3(OC(C)=O)[C@H]2[C@H](OC(=O)c2ccccc2)[C@]2(O)C[C@H](OC(=O)[C@H](O)[C@@H](NC(=O)c3ccccc3)c3ccccc3)C(C)=C1C2(C)C (some centres undefined)	2.05 µM	< 0.01 µM	19.8 µM	46.8 µM	0.576 µM	> 100 µM	0.32 µM	16.3 µM	< 0.0106 µM	0.0462 µM
NC(=O)C(c1ccccc1)N1OC2C(=O)N(c3ccccc3)C(=O)C2C1c1c2ccccc2c(Cl)c2ccccc12 (centres undefined)		> 100 µM	> 100 µM	> 100 µM	> 100 µM	> 100 µM		> 100 µM	> 100 µM	> 100 µM
C(/c1ccco1)=c1/nc(-c2ccccc2)n2c1nc1ccccc12	> 100 µM	> 100 µM	> 100 µM	> 100 µM	> 100 µM	> 100 µM		> 100 µM	> 100 µM	46.8 µM
O=c1[nH]cc(N=Cc2cc(Cl)cc(Cl)c2O)c(=O)[nH]1	> 100 µM	61.8 µM	50.1 µM	41.6 µM	62.1 µM	47.8 µM	95.7 µM	49.9 µM	46.9 µM	99 µM
C=C(Br)C(C)(Cl)CCC(Br)C(C)(C)Cl (centres undefined)	> 100 µM	86.3 µM	> 100 µM		66.2 µM	> 100 µM	> 100 µM	57.8 µM	80.6 µM	44.5 µM
CN1CCN([C@H]2C[C@H]3[C@@H]4CC=C5C[C@@H](O)CC[C@]5(C)[C@H]4CC[C@]3(C)C2=O)CC1	> 100 µM	> 100 µM	> 100 µM	> 100 µM	> 100 µM	> 100 µM	> 100 µM	> 100 µM	> 100 µM	> 100 µM
CCCN=C1CCN(Cc2ccccc2)c2ccccc2N1	36.3 µM	45 µM	19.5 µM	31.6 µM	96.1 µM	34.4 µM		22.1 µM	37.3 µM	> 100 µM
CC(C)C1/C(=N/O)CC(c2ccccc2)N(N=O)C1c1ccccc1 (centres undefined)	67.5 µM	72.4 µM	> 100 µM	73.6 µM	> 100 µM	> 100 µM	> 100 µM	61.9 µM	86.7 µM	> 100 µM
O=C1CCC(=O)N1n1c(Cc2ccccc2)n[nH]c1=O	> 100 µM	> 100 µM	> 100 µM	> 100 µM	> 100 µM	> 100 µM	> 100 µM	> 100 µM		> 100 µM
Clc1cc(OC2C3CC4CC(C3)CC2C4)nc(Cl)n1 (centres undefined)	31.6 µM	37.9 µM	23.3 µM	25.8 µM		88.5 µM	4.28 µM	30.1 µM	12.9 µM	38.8 µM
Cc1cccc(/C=N/NC(=S)Nc2ccccc2)n1	9.13 µM	> 100 µM	> 25 µM	36 µM	> 25 µM	10.8 µM	> 61.6 µM	64.2 µM	> 24.7 µM	> 23.3 µM
